Measurements reported in patent US9682995B2, “Amino-substituted isothiazoles” (BAYER PHARMA AKTIENGESELLSCHAFT, priority 2013, dated 2017).

Columns and labels:
Experiment in all cases: Kinase Profiling (KINOMEscan)
Assay type in all cases: binding
[1] = biological target: 456 kinases (of these 395 non-mutant kinases) (Homo sapiens, UniProt P11309); conditions: PIM1; 10 μM
[2] = biological target: 456 kinases (of these 395 non-mutant kinases) (Homo sapiens, UniProt Q13976); conditions: PRKG1; 10 μM
[3] = biological target: 456 kinases (of these 395 non-mutant kinases) (Homo sapiens, UniProt P35590); conditions: TIE1; 10 μM
[4] = biological target: 456 kinases (of these 395 non-mutant kinases) (Homo sapiens, UniProt Q00532); conditions: CDKL1; 10 μM
[5] = biological target: 456 kinases (of these 395 non-mutant kinases) (Homo sapiens, UniProt P49761); conditions: CLK3; 10 μM
[6] = biological target: 456 kinases (of these 395 non-mutant kinases) (Homo sapiens, UniProt Q9HC98); conditions: NEK6; 10 μM
[7] = biological target: 456 kinases (of these 395 non-mutant kinases) (Homo sapiens, UniProt Q9Y243); conditions: AKT3; 10 μM
[8] = biological target: 456 kinases (of these 395 non-mutant kinases) (Homo sapiens, UniProt P07333); conditions: 10 μM
Sequence of 456 kinases (of these 395 non-mutant kinases) (Homo sapiens, UniProt P07333) (P07333 20-972 limits assumed, change not shown): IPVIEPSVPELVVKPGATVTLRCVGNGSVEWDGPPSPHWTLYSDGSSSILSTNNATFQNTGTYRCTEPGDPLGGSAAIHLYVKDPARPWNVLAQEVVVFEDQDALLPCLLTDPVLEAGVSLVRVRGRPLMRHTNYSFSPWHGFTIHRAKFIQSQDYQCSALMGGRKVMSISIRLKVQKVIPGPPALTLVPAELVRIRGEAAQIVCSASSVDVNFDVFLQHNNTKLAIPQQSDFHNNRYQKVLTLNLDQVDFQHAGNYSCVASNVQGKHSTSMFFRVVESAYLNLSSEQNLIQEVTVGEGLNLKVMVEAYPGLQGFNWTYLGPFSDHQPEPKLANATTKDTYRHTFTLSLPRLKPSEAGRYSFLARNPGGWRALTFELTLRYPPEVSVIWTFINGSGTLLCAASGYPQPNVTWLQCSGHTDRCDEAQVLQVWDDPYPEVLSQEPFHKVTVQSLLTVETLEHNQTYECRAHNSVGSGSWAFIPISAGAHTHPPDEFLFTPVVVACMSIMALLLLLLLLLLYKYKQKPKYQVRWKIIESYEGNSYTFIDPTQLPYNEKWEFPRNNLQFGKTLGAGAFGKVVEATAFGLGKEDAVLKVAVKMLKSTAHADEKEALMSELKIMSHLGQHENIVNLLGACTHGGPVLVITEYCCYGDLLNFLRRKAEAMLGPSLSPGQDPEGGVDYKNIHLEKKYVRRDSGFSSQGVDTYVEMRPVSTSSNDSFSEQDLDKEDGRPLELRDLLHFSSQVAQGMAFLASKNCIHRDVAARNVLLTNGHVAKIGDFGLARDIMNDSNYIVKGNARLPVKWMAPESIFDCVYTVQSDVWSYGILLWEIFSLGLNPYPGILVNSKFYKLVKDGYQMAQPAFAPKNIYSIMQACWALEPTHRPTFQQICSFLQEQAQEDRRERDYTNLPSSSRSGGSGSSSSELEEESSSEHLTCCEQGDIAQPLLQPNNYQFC

[9] = biological target: 456 kinases (of these 395 non-mutant kinases) (Homo sapiens, UniProt Q9H422); conditions: HIPK3; 10 μM
[10] = biological target: 456 kinases (of these 395 non-mutant kinases) (Homo sapiens, UniProt Q9UM73, C1156Y); conditions: ALK(C1156Y); 10 μM
[11] = biological target: 456 kinases (of these 395 non-mutant kinases) (Homo sapiens, UniProt P09619); conditions: PDGFRB; 10 μM
Sequence of 456 kinases (of these 395 non-mutant kinases) (Homo sapiens, UniProt P09619) (P09619 33-1106 limits assumed, change not shown): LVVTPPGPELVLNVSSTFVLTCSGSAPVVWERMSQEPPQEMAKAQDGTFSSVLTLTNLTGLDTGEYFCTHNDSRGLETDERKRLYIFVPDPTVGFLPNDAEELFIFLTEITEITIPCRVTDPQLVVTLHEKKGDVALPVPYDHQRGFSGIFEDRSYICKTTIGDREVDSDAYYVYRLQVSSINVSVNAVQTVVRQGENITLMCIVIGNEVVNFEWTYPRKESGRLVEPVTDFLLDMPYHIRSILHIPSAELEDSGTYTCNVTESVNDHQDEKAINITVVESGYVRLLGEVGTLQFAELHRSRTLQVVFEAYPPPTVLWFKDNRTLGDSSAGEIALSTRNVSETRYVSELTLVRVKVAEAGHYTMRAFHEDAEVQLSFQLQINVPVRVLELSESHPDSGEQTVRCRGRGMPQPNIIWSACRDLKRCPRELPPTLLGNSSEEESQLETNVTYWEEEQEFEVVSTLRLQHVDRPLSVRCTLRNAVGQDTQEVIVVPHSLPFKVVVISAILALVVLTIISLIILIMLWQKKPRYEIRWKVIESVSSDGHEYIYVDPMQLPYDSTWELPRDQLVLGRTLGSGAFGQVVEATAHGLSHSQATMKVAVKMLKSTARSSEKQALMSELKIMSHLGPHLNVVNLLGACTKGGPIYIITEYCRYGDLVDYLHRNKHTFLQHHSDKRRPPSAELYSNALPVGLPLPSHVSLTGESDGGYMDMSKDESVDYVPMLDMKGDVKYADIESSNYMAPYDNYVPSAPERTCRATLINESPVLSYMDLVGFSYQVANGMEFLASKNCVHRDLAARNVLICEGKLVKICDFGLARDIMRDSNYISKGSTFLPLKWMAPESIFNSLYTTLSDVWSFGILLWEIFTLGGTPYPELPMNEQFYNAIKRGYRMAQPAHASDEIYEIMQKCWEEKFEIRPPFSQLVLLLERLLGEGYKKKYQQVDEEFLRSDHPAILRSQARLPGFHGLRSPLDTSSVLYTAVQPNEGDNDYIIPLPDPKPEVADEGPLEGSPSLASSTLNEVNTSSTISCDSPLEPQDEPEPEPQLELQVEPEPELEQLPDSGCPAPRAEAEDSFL

[12] = biological target: 456 kinases (of these 395 non-mutant kinases) (Homo sapiens, UniProt Q96PY6); conditions: NEK1; 10 μM
[13] = biological target: 456 kinases (of these 395 non-mutant kinases) (Homo sapiens, UniProt O60285); conditions: ARK5; 10 μM
[14] = biological target: 456 kinases (of these 395 non-mutant kinases) (Homo sapiens, UniProt P33981); conditions: TTK; 10 μM
[15] = biological target: 456 kinases (of these 395 non-mutant kinases) (Homo sapiens, UniProt O00506); conditions: YSK1; 10 μM
[16] = biological target: 456 kinases (of these 395 non-mutant kinases) (Homo sapiens, UniProt P19784); conditions: CSNK2A2; 10 μM
[17] = biological target: 456 kinases (of these 395 non-mutant kinases) (Homo sapiens, UniProt O75676); conditions: 10 μM
[18] = biological target: 456 kinases (of these 395 non-mutant kinases) (Homo sapiens, UniProt P57058); conditions: HUNK; 10 μM
[19] = biological target: 456 kinases (of these 395 non-mutant kinases) (Homo sapiens, UniProt P43405); conditions: SYK; 10 μM
[20] = biological target: 456 kinases (of these 395 non-mutant kinases) (Homo sapiens, UniProt P35968); conditions: VEGFR2; 10 μM
Sequence of 456 kinases (of these 395 non-mutant kinases) (Homo sapiens, UniProt P35968) (P35968 20-1356 limits assumed, change not shown): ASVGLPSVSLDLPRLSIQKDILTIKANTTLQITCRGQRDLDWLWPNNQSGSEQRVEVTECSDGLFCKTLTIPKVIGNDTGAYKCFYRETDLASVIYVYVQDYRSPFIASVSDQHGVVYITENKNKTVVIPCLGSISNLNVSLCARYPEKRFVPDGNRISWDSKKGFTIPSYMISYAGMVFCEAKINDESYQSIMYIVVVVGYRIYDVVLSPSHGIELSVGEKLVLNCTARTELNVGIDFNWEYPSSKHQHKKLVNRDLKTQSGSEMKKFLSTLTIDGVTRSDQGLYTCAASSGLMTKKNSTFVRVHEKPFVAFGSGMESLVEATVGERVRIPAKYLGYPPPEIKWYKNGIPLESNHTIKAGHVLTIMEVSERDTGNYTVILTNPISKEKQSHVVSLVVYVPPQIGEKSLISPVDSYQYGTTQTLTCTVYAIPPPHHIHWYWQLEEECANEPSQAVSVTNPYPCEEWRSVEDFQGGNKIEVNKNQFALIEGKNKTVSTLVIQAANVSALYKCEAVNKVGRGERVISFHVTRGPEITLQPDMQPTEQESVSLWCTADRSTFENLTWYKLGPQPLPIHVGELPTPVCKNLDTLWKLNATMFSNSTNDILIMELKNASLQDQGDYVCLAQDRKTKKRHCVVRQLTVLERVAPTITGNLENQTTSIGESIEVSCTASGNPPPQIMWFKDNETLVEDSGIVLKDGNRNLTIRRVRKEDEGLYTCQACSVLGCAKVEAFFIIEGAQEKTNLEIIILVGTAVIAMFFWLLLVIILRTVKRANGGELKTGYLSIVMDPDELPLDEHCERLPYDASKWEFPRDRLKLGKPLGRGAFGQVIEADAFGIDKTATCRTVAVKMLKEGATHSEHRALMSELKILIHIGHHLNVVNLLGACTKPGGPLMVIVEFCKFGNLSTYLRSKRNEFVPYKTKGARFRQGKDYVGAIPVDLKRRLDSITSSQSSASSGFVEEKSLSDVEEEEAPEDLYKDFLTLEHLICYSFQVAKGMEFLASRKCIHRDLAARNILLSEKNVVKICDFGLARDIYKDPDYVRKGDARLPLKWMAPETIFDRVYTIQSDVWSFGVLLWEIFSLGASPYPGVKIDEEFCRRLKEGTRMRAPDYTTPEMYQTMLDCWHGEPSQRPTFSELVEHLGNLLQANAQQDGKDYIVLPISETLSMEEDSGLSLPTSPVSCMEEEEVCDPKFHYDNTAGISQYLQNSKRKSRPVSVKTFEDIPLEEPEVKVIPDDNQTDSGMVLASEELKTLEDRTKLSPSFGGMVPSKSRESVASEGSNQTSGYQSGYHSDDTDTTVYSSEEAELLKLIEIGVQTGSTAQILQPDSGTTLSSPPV

[21] = biological target: 456 kinases (of these 395 non-mutant kinases) (Homo sapiens, UniProt Q9H4A3); conditions: WNK1; 10 μM
[22] = biological target: 456 kinases (of these 395 non-mutant kinases) (Homo sapiens, UniProt P22455); conditions: FGFR4; 10 μM
Sequence of 456 kinases (of these 395 non-mutant kinases) (Homo sapiens, UniProt P22455) (P22455 22-802 limits assumed, change not shown): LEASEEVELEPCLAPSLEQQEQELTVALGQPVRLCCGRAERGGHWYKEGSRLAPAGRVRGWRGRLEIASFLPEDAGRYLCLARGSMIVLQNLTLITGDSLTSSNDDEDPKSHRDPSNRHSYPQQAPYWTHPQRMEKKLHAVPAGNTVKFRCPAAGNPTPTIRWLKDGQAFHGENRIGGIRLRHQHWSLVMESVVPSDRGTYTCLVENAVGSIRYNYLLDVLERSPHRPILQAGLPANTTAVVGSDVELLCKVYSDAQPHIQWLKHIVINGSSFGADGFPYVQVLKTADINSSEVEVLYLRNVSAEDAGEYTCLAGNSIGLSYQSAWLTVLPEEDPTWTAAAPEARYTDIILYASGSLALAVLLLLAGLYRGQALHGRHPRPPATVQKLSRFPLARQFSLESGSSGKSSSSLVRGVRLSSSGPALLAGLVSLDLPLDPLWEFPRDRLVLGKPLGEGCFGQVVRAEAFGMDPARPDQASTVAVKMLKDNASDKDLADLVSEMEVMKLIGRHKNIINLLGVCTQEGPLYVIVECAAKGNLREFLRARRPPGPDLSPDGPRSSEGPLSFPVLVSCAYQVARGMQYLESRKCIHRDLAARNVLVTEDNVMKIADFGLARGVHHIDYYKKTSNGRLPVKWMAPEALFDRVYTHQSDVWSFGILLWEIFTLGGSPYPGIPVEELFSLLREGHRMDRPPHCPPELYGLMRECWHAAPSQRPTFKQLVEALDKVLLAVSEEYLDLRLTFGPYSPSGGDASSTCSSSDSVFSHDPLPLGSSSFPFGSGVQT

[23] = biological target: 456 kinases (of these 395 non-mutant kinases) (Homo sapiens, UniProt Q9H2X6); conditions: HIPK2; 10 μM
[24] = biological target: 456 kinases (of these 395 non-mutant kinases) (Homo sapiens, UniProt P53779); conditions: JNK3; 10 μM
[25] = biological target: 456 kinases (of these 395 non-mutant kinases) (Homo sapiens, UniProt P23458); conditions: 10 μM
[26] = biological target: 456 kinases (of these 395 non-mutant kinases) (Homo sapiens, UniProt Q99759); conditions: MAP3K3; 10 μM
[27] = biological target: 456 kinases (of these 395 non-mutant kinases) (Homo sapiens, UniProt P11362); conditions: FGFR1; 10 μM
Sequence of 456 kinases (of these 395 non-mutant kinases) (Homo sapiens, UniProt P11362) (P11362 22-822 limits assumed, change not shown): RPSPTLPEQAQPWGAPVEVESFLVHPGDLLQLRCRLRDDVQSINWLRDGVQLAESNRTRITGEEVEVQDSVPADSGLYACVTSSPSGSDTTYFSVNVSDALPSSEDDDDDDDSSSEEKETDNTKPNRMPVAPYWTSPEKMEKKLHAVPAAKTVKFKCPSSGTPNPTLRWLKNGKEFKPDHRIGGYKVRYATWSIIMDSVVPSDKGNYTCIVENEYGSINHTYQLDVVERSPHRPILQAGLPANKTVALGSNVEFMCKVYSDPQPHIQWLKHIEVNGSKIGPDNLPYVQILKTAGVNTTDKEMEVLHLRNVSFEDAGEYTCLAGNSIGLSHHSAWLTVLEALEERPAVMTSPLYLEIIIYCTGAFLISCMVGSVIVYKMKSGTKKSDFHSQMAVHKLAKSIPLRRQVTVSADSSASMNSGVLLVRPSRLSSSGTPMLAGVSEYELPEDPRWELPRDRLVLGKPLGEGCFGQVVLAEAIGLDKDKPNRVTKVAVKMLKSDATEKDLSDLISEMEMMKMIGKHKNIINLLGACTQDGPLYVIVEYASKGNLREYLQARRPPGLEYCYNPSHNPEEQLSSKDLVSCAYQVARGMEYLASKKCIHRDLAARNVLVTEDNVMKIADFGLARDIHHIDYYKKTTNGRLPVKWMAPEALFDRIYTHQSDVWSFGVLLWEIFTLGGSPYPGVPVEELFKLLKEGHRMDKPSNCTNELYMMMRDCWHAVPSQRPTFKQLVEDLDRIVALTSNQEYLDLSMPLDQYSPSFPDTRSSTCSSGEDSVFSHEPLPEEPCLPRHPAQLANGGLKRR

[28] = biological target: 456 kinases (of these 395 non-mutant kinases) (Homo sapiens, UniProt P54756); conditions: EPHA5; 10 μM
[29] = biological target: 456 kinases (of these 395 non-mutant kinases) (Homo sapiens, UniProt Q8NG66); conditions: NEK11; 10 μM
[30] = biological target: 456 kinases (of these 395 non-mutant kinases) (Homo sapiens, UniProt P10721, V559D/V654A); conditions: KIT(V559D,V654A); 10 μM
[31] = biological target: 456 kinases (of these 395 non-mutant kinases) (Homo sapiens, UniProt P37023); conditions: ACVRL1; 10 μM
[32] = biological target: 456 kinases (of these 395 non-mutant kinases) (Homo sapiens, UniProt P14616); conditions: INSRR; 10 μM

CCc1ccccc1NC(=O)c1c(C)nsc1Nc1cnc2cc(F)ccc2n1 [Example 20, N-(2-Ethylphenyl)-5-[(6-fluoroquinoxalin-2-yl)amino]-3-methyl-1,2-thiazole-4-carboxamide]
% Ctrl @ 10 μM [1]: 100 % Ctrl
% Ctrl @ 10 μM [2]: 90 % Ctrl
% Ctrl @ 10 μM [3]: 100 % Ctrl
% Ctrl @ 10 μM [4]: 100 % Ctrl
% Ctrl @ 10 μM [5]: 74 % Ctrl
% Ctrl @ 10 μM [6]: 100 % Ctrl
% Ctrl @ 10 μM [7]: 100 % Ctrl
% Ctrl @ 10 μM ([8]; CSF1R-autoinhibited): 91 % Ctrl
% Ctrl @ 10 μM ([8]; CSF1R): 100 % Ctrl
% Ctrl @ 10 μM [9]: 96 % Ctrl
% Ctrl @ 10 μM [10]: 100 % Ctrl
% Ctrl @ 10 μM [11]: 89 % Ctrl
% Ctrl @ 10 μM [12]: 100 % Ctrl
% Ctrl @ 10 μM [13]: 85 % Ctrl
% Ctrl @ 10 μM [14]: 72 % Ctrl
% Ctrl @ 10 μM [15]: 100 % Ctrl
% Ctrl @ 10 μM [16]: 100 % Ctrl
% Ctrl @ 10 μM ([17]; RPS6KA4(Kin.Dom.1-N-terminal)): 93 % Ctrl
% Ctrl @ 10 μM ([17]; RPS6KA4(Kin.Dom.2-C-terminal)): 88 % Ctrl
% Ctrl @ 10 μM [18]: 93 % Ctrl
% Ctrl @ 10 μM [19]: 90 % Ctrl
% Ctrl @ 10 μM [20]: 100 % Ctrl
% Ctrl @ 10 μM [21]: 100 % Ctrl
% Ctrl @ 10 μM [22]: 77 % Ctrl
% Ctrl @ 10 μM [23]: 100 % Ctrl
% Ctrl @ 10 μM [24]: 100 % Ctrl
% Ctrl @ 10 μM ([25]; JAK1(JH1domain-catalytic)): 100 % Ctrl
% Ctrl @ 10 μM ([25]; JAK1(JH2domain-pseudokinase)): 71 % Ctrl
% Ctrl @ 10 μM [26]: 100 % Ctrl
% Ctrl @ 10 μM [27]: 94 % Ctrl
% Ctrl @ 10 μM [28]: 99 % Ctrl
% Ctrl @ 10 μM [29]: 92 % Ctrl
% Ctrl @ 10 μM [30]: 96 % Ctrl
% Ctrl @ 10 μM [31]: 100 % Ctrl
% Ctrl @ 10 μM [32]: 76 % Ctrl
